Strand notation (5' to 3'): a small letter for the sugar, then the base; units joined by * are phosphorothioate-linked, units joined directly phosphodiester-linked; [ ] holds rarer units or linkages, { } end groups; capitals alone tell only the bases. k = constrained ethyl (cEt); [5mC] = 5-methylcytosine; d = 2'-deoxy (DNA)
How the values were obtained:
Yap1 mRNA [1] = test: Antisense inhibition of human Yap1 in A-431 cells by cEt gapmers, single dose (Example 1, RTS4814); assay type: cell-based
Procedure: Modified oligonucleotides were designed to target a Yap1 nucleic acid and were tested for their effect on Yap1 mRNA level in vitro. The modified oligonucleotides were tested in a series of experiments that had similar culture conditions. Cultured A-431 cells at a density of 5,000 cells per well were treated using free uptake with 2,000 nM of modified oligonucleotide. After a treatment period of approximately 48 hours, RNA was isolated from the cells and Yap1 mRNA levels were measured by quantitative real-time RTPCR. Human primer probe set RTS4814 (forward sequence […], designated herein as SEQ ID NO.: 11; reverse sequence […], designated herein as SEQ ID NO.: 12; probe sequence […], designated herein as SEQ ID NO.: 13) was used to measure mRNA levels. Yap1 mRNA levels were normalized to total RNA content, as measured by RIBOGREEN®. Results are presented in the tables below as percent control of the amount of Yap1 mRNA relative to untreated control cells (% UTC). The modified oligonucleotides with percent control values marked with an asterisk (*) target the amplicon region of the primer probe set. Additional assays may be used to measure the potency and efficacy of the modified oligonucleotides targeting the amplicon region.
The newly designed modified oligonucleotides in the Tables below were designed as 3-10-3 cEt gapmers. The gapmers are 16 nucleosides in length, wherein the central gap segment comprises of ten 2′-deoxynucleosides and is flanked by wing segments on the 5′ direction and the 3′ direction comprising three nucleosides each. Each nucleoside in the 5′ wing segment and each nucleoside in the 3′ wing segment has a cEt sugar modification. The internucleoside linkages throughout each gapmer are phosphorothioate (P═S) linkages. All cytosine residues throughout each gapmer are 5-methylcytosines.
“Start site” indicates the 5′-most nucleoside to which the gapmer is targeted in the human gene sequence. “Stop site” indicates the 3′-most nucleoside to which the gapmer is targeted human gene sequence. […] Activity of the modified oligonucleotide may be defined in a different experiment.

Yap1 mRNA [2] = test: Dose-dependent inhibition of human Yap1 in A-431 cells (Example 6, 5,000 cells per well, RTS4814); assay type: cell-based; conditions: for Yap1 mRNA, % UTC: 48 hours
Procedure: Modified oligonucleotides described in the studies above were tested at various doses in A-431 cells. Cultured A-431 cells at a density of 5,000 cells per well were treated using free uptake with modified oligonucleotides diluted to concentrations described in the tables below. After approximately 48 hours, Yap1 mRNA levels were measured as previously described using the Human Yap1 primer-probe set RTS4814. Yap1 mRNA levels were normalized to total RNA content, as measured by RIBOGREEN®. Results are presented in the tables below as percent control of the amount of Yap1 mRNA relative to untreated control cells (% UTC). IC50s were calculated using a linear regression on a log/linear plot of the data in excel.

[3] = Table 1, A-431 cells, free uptake, 2,000 nM, approximately 48 hours, RTS4814, Yap1 mRNA relative to untreated control cells
[4] = Table 2, A-431 cells, free uptake, 2,000 nM, approximately 48 hours, RTS4814, Yap1 mRNA relative to untreated control cells
[5] = A-431 cells, 5,000 cells per well, free uptake, 2,000 nM modified oligonucleotide, approx. 48 hours, RTS4814, normalized to RIBOGREEN, Table 3
[6] = Table 55, 148 nM, free uptake, A-431 cells 5,000 cells per well, RTS4814
[7] = Table 55, 444 nM, free uptake, A-431 cells 5,000 cells per well, RTS4814
[8] = Table 55, 1333 nM, free uptake, A-431 cells 5,000 cells per well, RTS4814
[9] = Table 55, 4000 nM, free uptake, A-431 cells 5,000 cells per well, RTS4814
[10] = Table 55, A-431 cells 5,000 cells per well, free uptake, RTS4814

## 715400 (k[5mC]*kT*k[5mC]*d[5mC]*dG*dA*dG*dT*d[5mC]*d[5mC]*d[5mC]*d[5mC]*dG*k[5mC]*kG*kG; antisense) [Compound 715400]
Yap1 mRNA [1]; [3]
  YAP1 (% UTC): 107 % UTC

## 715401 (kG*kG*kT*d[5mC]*dT*d[5mC]*d[5mC]*dG*dA*dG*dT*d[5mC]*d[5mC]*k[5mC]*k[5mC]*kG; antisense) [Compound 715401]
Yap1 mRNA [1]; [4]
  YAP1 (% UTC): 84 % UTC

## 715402 (kA*kG*kG*dA*dG*dT*d[5mC]*dG*dG*dG*d[5mC]*dA*dG*k[5mC]*kT*kT; antisense) [Compound 715402]
Yap1 mRNA [1]; [5]
  YAP1 (% UTC): 59 % UTC

## 715403 (kG*kA*kA*dG*dG*dA*dG*dT*d[5mC]*dG*dG*dG*d[5mC]*kA*kG*k[5mC]; antisense) [Compound 715403]
Yap1 mRNA [1]; [3]
  YAP1 (% UTC): 72 % UTC

## 715404 (kA*kA*kG*dA*dA*dG*dG*dA*dG*dT*d[5mC]*dG*dG*kG*k[5mC]*kA; antisense) [Compound 715404]
Yap1 mRNA [1]; [4]
  YAP1 (% UTC): 64 % UTC

## 715405 (kT*kG*kA*dA*dG*dA*dA*dG*dG*dA*dG*dT*d[5mC]*kG*kG*kG; antisense) [Compound 715405]
Yap1 mRNA [1]; [5]
  YAP1 (% UTC): 60 % UTC

## 715406 (k[5mC]*kT*kT*dG*dA*dA*dG*dA*dA*dG*dG*dA*dG*kT*k[5mC]*kG; antisense) [Compound 715406]
Yap1 mRNA [1]; [3]
  YAP1 (% UTC): 58 % UTC

## 715407 (kG*kG*k[5mC]*dT*dT*dG*dA*dA*dG*dA*dA*dG*dG*kA*kG*kT; antisense) [Compound 715407]
Yap1 mRNA [1]; [4]
  YAP1 (% UTC): 53 % UTC

## 715408 (kG*k[5mC]*kG*dG*d[5mC]*dT*dT*dG*dA*dA*dG*dA*dA*kG*kG*kA; antisense) [Compound 715408]
Yap1 mRNA [1]; [5]
  YAP1 (% UTC): 60 % UTC

## 715409 (k[5mC]*kA*kG*dT*dA*d[5mC]*dT*dG*dG*d[5mC]*d[5mC]*dT*dG*kT*k[5mC]*kG; antisense) [Compound 715409]
Yap1 mRNA [1]; [3]
  YAP1 (% UTC): 76 % UTC

## 715410 (kA*kT*k[5mC]*dA*dG*dT*dA*d[5mC]*dT*dG*dG*d[5mC]*d[5mC]*kT*kG*kT; antisense) [Compound 715410]
Yap1 mRNA [1]; [4]
  YAP1 (% UTC): 61 % UTC

## 715411 (kG*k[5mC]*kA*dT*d[5mC]*dA*dG*dT*dA*d[5mC]*dT*dG*dG*k[5mC]*k[5mC]*kT; antisense) [Compound 715411]
Yap1 mRNA [1]; [5]
  YAP1 (% UTC): 94 % UTC

## 715412 (k[5mC]*kT*kG*d[5mC]*dA*dT*d[5mC]*dA*dG*dT*dA*d[5mC]*dT*kG*kG*k[5mC]; antisense) [Compound 715412]
Yap1 mRNA [1]; [3]
  YAP1 (% UTC): 66 % UTC

## 715413 (k[5mC]*kA*kT*dG*d[5mC]*dT*dG*dT*dG*dG*dA*dG*dT*k[5mC]*kA*kG; antisense) [Compound 715413]
Yap1 mRNA [1]; [4]
  YAP1 (% UTC): 96 % UTC

## 715414 (kA*kA*k[5mC]*dA*dT*dG*d[5mC]*dT*dG*dT*dG*dG*dA*kG*kT*k[5mC]; antisense) [Compound 715414]
Yap1 mRNA [1]; [5]
  YAP1 (% UTC): 31 % UTC

## 715415 (k[5mC]*kG*kA*dA*d[5mC]*dA*dT*dG*d[5mC]*dT*dG*dT*dG*kG*kA*kG; antisense) [Compound 715415]
Yap1 mRNA [1]; [3]
  YAP1 (% UTC): 24 % UTC

## 715416 (k[5mC]*kT*k[5mC]*dG*dA*dA*d[5mC]*dA*dT*dG*d[5mC]*dT*dG*kT*kG*kG; antisense) [Compound 715416]
Yap1 mRNA [1]; [4]
  YAP1 (% UTC): 53 % UTC

## 715417 (kG*kA*kG*d[5mC]*dT*d[5mC]*dG*dA*dA*d[5mC]*dA*dT*dG*k[5mC]*kT*kG; antisense) [Compound 715417]
Yap1 mRNA [1]; [5]
  YAP1 (% UTC): 104 % UTC

## 715418 (kA*kG*kT*dG*dT*d[5mC]*d[5mC]*d[5mC]*dA*dG*dG*dA*dG*kA*kA*kA; antisense) [Compound 715418]
Yap1 mRNA [1]; [3]
  YAP1 (% UTC): 126 % UTC

## 715419 (kG*kA*k[5mC]*d[5mC]*dA*dG*dA*dA*dG*dA*dT*dG*dT*k[5mC]*kT*kT; antisense) [Compound 715419]
Yap1 mRNA [1]; [4]
  YAP1 (% UTC): 107 % UTC

## 715420 (kG*kA*kT*dT*dT*dA*dA*dG*dA*dA*dG*dT*dA*kT*k[5mC]*kT; antisense) [Compound 715420]
Yap1 mRNA [1]; [5]
  YAP1 (% UTC): 107 % UTC

## 715421 (kG*kT*kG*dA*dT*dT*dT*dA*dA*dG*dA*dA*dG*kT*kA*kT; antisense) [Compound 715421]
Yap1 mRNA [1]; [3]
  YAP1 (% UTC): 71 % UTC

## 715422 (kA*kT*kG*dT*dT*dG*dT*dT*dG*dT*d[5mC]*dT*dG*kA*kT*k[5mC]; antisense) [Compound 715422]
Yap1 mRNA [1]; [4]
  YAP1 (% UTC): 57 % UTC

## 715423 (k[5mC]*k[5mC]*kA*dT*dG*dT*dT*dG*dT*dT*dG*dT*d[5mC]*kT*kG*kA; antisense) [Compound 715423]
Yap1 mRNA [1]; [5]
  YAP1 (% UTC): 30 % UTC

## 715424 (kT*kG*k[5mC]*d[5mC]*dA*dT*dG*dT*dT*dG*dT*dT*dG*kT*k[5mC]*kT; antisense) [Compound 715424]
Yap1 mRNA [1]; [3]
  YAP1 (% UTC): 58 % UTC

## 715425 (kG*kT*k[5mC]*d[5mC]*dT*dG*d[5mC]*d[5mC]*dA*dT*dG*dT*dT*kG*kT*kT; antisense) [Compound 715425]
Yap1 mRNA [1]; [4]
  YAP1 (% UTC): 98 % UTC

## 715426 (kA*kT*k[5mC]*d[5mC]*dA*dT*d[5mC]*dA*dG*dG*dA*dA*dG*kA*kG*kG; antisense) [Compound 715426]
Yap1 mRNA [1]; [5]
  YAP1 (% UTC): 80 % UTC

## 715427 (k[5mC]*k[5mC]*kA*dT*d[5mC]*d[5mC]*dA*dT*d[5mC]*dA*dG*dG*dA*kA*kG*kA; antisense) [Compound 715427]
Yap1 mRNA [1]; [3]
  YAP1 (% UTC): 90 % UTC

## 715428 (kT*k[5mC]*k[5mC]*d[5mC]*dA*dT*d[5mC]*d[5mC]*dA*dT*d[5mC]*dA*dG*kG*kA*kA; antisense) [Compound 715428]
Yap1 mRNA [1]; [4]
  YAP1 (% UTC): 106 % UTC

## 715429 (k[5mC]*k[5mC]*kT*dG*dA*dG*dT*d[5mC]*dA*dT*dG*dG*d[5mC]*kT*kT*kG; antisense) [Compound 715429]
Yap1 mRNA [1]; [5]
  YAP1 (% UTC): 62 % UTC

## 715430 (kA*kT*k[5mC]*d[5mC]*dT*dG*dA*dG*dT*d[5mC]*dA*dT*dG*kG*k[5mC]*kT; antisense) [Compound 715430]
Yap1 mRNA [1]; [3]
  YAP1 (% UTC): 118 % UTC

## 715431 (k[5mC]*k[5mC]*kA*dT*d[5mC]*d[5mC]*dT*dG*dA*dG*dT*d[5mC]*dA*kT*kG*kG; antisense) [Compound 715431]
Yap1 mRNA [1]; [4]
  YAP1 (% UTC): 99 % UTC

## 716548 (antisense kG*kA*kG*dT*dT*dT*d[5mC]*dA*dA*d[5mC]*dA*d[5mC]*dT*kG*kA*kT) [compound 716548]
Yap1 mRNA [2]; [6]
  Yap1 mRNA, % UTC: 99 % UTC
Yap1 mRNA [2]; [7]
  Yap1 mRNA, % UTC: 89 % UTC
Yap1 mRNA [2]; [8]
  Yap1 mRNA, % UTC: 79 % UTC
Yap1 mRNA [2]; [9]
  Yap1 mRNA, % UTC: 67 % UTC
Yap1 mRNA [2]; [10]
  IC50: > 4 µM

## 716554 (antisense kA*kT*kG*d[5mC]*dT*dT*dG*d[5mC]*dG*dA*dG*dG*dA*kT*kA*kA) [compound 716554]
Yap1 mRNA [2]; [6]
  Yap1 mRNA, % UTC: 87 % UTC
Yap1 mRNA [2]; [7]
  Yap1 mRNA, % UTC: 90 % UTC
Yap1 mRNA [2]; [8]
  Yap1 mRNA, % UTC: 76 % UTC
Yap1 mRNA [2]; [9]
  Yap1 mRNA, % UTC: 50 % UTC
Yap1 mRNA [2]; [10]
  IC50: > 4 µM

## 716577 (antisense kT*k[5mC]*kT*dG*dT*d[5mC]*dA*dG*dT*dT*dA*dT*d[5mC]*k[5mC]*kT*kA) [compound 716577]
Yap1 mRNA [2]; Table 54, A-431 cells, Yap1 mRNA, linear regression on a log/linear plot
  IC50: > 4 µM
Yap1 mRNA [2]; Table 54, A-431 cells, free uptake, 148 nM, approximately 48 hours, RTS4814
  % UTC 148 nM: 109 % UTC
Yap1 mRNA [2]; Table 54, A-431 cells, free uptake, 444 nM, approximately 48 hours, RTS4814
  % UTC 444 nM: 93 % UTC
Yap1 mRNA [2]; Table 54, A-431 cells, free uptake, 1333 nM, approximately 48 hours, RTS4814
  % UTC 1333 nM: 79 % UTC
Yap1 mRNA [2]; Table 54, A-431 cells, free uptake, 4000 nM, approximately 48 hours, RTS4814
  % UTC 4000 nM: 60 % UTC

From patent US11214803B2, “Modulators of YAP1 expression” (Ionis Pharmaceuticals, Inc., priority 2019, dated 2022)
